Experiments:
[1] = biological target: T1, human cystathionine-β-synthase (CBS) (Homo sapiens, UniProt P35520); assay: Selectivity assay, H2S-producing activity of CBS; assay type: biochemical; conditions: at 100 µM
T1 construct: made in house; host or cells: E. coli
T1 sequence (P35520 1-551): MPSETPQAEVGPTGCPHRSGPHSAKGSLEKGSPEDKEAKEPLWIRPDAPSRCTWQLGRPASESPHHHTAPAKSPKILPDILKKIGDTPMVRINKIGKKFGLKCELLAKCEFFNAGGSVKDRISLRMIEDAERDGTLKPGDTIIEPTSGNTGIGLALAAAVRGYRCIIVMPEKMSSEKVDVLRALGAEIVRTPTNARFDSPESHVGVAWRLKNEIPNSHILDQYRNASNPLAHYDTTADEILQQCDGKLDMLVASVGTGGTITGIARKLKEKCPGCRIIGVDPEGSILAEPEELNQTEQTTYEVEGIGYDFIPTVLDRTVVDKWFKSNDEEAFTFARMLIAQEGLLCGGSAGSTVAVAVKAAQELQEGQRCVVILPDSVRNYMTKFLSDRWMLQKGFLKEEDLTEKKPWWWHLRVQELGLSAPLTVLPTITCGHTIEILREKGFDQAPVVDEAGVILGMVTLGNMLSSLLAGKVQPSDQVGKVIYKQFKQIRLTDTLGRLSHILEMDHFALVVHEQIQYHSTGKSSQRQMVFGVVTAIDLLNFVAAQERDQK
Experimental: (§1) To evaluate the selectivity of Compounds 53 and 56, their effects on the activities of two other PLP-dependent enzymes, human cystathionine-β-synthase (CBS) and cystathionine-γ-lyase (CSE), were determined using a H2S-producing assay. Human CBS and CSE were expressed and purified in E. coli with a purity exceeding 90%, as confirmed by SDS-PAGE (Figures S4A and S5A). Subsequently, the H2S-producing activities of CBS and CSE were assessed in the presence of different concentrations of Compounds 53 and 56. A widely used CBS inhibitor, AOAA, and a specific CSE inhibitor, PAG, were used as positive controls (Figures S4B and S5B).
(§2) The H2S-producing activity of CBS was measured as previously described. The reaction mixture (200 μL) contained 50 mM of Hepes buffer (pH 7.4), 2 mM of homocysteine, 10 μM of PLP, 0.4 mM of lead nitrate, and 5 μg of CBS protein. It was preincubated at 37 °C for 3 min, and the reaction was initiated by the addition of 2 mM of cysteine. The reaction was monitored in a multifunctional microplate reader at 37 °C for 10 min. An extinction coefficient of 5500 M^−1 cm^−1 at 390 nm was used to calculate the lead sulfide concentration. The method used to determine CSE activity in the H2S-producing assay was identical to the CBS assay, except that 1 mM of cysteine was used as the sole substrate. […]

[2] = test system: A549 cells; assay: Endogenous ROS levels, DCFH-DA fluorescence; assay type: cell-based, human; conditions: 48 h, Compound 53 50 µM, Erastin 2.5 µM, 2-AAPA 20 µM
Experimental: Endogenous ROS levels in A549 cells were detected using the fluorescent dye DCFH-DA [48, 49]. A549 cells were cultured in DMEM supplemented with 10% fetal bovine serum at 37 °C in a humidified atmosphere containing 5% CO2. […] Subsequently, the cells were washed three times with prewarmed PBS, and fresh medium containing 10 μM of DCFH-DA was added. After 30 min of incubation, the cells were washed again with prewarmed PBS, fresh medium was added, and the cells were imaged using an inverted fluorescence microscope (Leica, Wetzlar, Germany). Images of live cells were acquired in six different fields. ImageJ software was used to analyze the images.

[3] = biological target: T2, cystathionine-γ-lyase (CSE) (Homo sapiens, UniProt P32929); assay: Selectivity assay, H2S-producing activity of CSE; assay type: biochemical; conditions: at 100 µM
T2 construct: made in house; host or cells: E. coli
Experimental: as §1, §2

[4] = biological target: T3, NFS1 E387A (Homo sapiens, UniProt Q9Y697, E387A); assay: H2S-producing assay, NFS1 E387A mutant; assay type: biochemical
T3 construct: His tag (N); made in house; host or cells: E. coli BL21(DE3)
Experimental: To further validate the accuracy of the simulated results, the residues Cys158, Glu387, Lys157, and His156 were mutated to alanine using site-directed mutagenesis.
For the expression and purification of NFS1Δ1-55/ISD11 in E. coli, the plasmid pNFS1-ISD11 was transformed into BL21(DE3) cells. The cells were grown at 37 °C in 1 L cultures of LB medium containing chloramphenicol (50 μg/ml) until the optical density at 600 nm (OD600) reached 0.6–0.8. Protein expression was induced by adding 0.1 mM isopropyl β-D-1-thiogalactopyranoside (IPTG), followed by an additional 12 h of incubation at 25 °C. The cells were harvested by centrifugation at 8000 rpm for 10 min at 4 °C, then resuspended in lysis buffer containing 50 mM phosphate-buffered saline (PBS, pH 7.4), 500 mM NaCl, 100 mg/L lysozyme, 30 mM imidazole, and 1 mM phenylmethanesulfonyl fluoride (PMSF). The resuspended cells were incubated on ice for 1 h, followed by sonication using an Ultrasonic Cell Disruption System (Scientz, Ningbo, China). The supernatant was obtained by centrifugation at 12,000 rpm for 30 min at 4 °C and was loaded onto a HisTrap FF column (GE Healthcare, Chicago, MA, USA) pre-equilibrated with lysis buffer. […] The protein concentration was measured using a BCA protein assay reagent kit (TransGen Biotech, Beijing, China).

T2 sequence (P32929 whole entry): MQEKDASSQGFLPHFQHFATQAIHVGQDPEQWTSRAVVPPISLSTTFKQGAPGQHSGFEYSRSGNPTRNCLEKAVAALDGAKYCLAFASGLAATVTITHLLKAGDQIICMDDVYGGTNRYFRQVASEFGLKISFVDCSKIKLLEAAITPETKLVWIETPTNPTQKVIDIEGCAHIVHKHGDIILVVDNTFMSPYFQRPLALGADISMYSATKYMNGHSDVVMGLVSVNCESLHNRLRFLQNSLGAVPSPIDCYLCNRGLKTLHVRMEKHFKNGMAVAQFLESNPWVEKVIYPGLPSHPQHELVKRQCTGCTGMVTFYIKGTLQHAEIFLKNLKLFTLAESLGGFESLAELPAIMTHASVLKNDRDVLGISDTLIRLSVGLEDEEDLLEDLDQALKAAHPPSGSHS
T3 sequence (Q9Y697 56-457 E387A): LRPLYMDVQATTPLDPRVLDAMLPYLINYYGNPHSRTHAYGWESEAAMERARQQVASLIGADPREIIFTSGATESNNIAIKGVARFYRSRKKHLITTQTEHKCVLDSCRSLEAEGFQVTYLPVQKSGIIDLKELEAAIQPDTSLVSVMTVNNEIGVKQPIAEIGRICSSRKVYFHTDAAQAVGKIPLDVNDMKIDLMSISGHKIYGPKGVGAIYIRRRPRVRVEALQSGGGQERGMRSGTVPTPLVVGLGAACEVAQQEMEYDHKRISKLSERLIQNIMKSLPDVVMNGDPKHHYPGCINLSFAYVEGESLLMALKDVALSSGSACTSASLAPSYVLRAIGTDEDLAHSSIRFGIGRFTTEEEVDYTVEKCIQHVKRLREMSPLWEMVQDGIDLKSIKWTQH

## COc1cc(/C=N/NC(=O)COc2ccc(Cl)cc2Cl)ccc1O [Compound 53]
[1]
  inhibitory effect on CBS: no significant inhibitory effects
[2]
  intracellular ROS levels: did not significantly affect intracellular ROS levels
[3]
  inhibitory effect on CSE: no significant inhibitory effects
[4]
  IC50: 105 ± 3.17 µM

Source: publication PMC11942905, “Identification of a Selective Inhibitor of Human NFS1, a Cysteine Desulfurase Involved in Fe-S Cluster Assembly, via Structure-Based Virtual Screening” (International Journal of Molecular Sciences, 2025)
